Test results reported in ChEMBL document CHEMBL5608164, “Targeting kelch-like (KLHL) proteins: achievements, challenges and perspectives” (Eur J Med Chem, 2024).
Blank lines part the entries; values can stand above or below the compound they belong to. Starred links: 1 amine or outer side, 2 acyl side, 3 side chain; linkers in the order of their positions; H or OH if unused. Positions of bridges follow the written chain, without caps; N, C: chain ends. Residues, ends and D or L forms follow the SMILES beside them. mXylylene = c1cc(C[*:1])cc(C[*:2])c1

Key:
[1] = Inhibition of human Kelch-like protein extracted from Escherichia coli
[2] = target: T1, Kelch-like protein 20 (Homo sapiens, UniProt Q9Y2M5); assay: Binding affinity to KLHL20 (unknown origin) assessed as dissociation constant by fluorescence polarization assay
T1 sequence (Q9Y2M5 whole entry): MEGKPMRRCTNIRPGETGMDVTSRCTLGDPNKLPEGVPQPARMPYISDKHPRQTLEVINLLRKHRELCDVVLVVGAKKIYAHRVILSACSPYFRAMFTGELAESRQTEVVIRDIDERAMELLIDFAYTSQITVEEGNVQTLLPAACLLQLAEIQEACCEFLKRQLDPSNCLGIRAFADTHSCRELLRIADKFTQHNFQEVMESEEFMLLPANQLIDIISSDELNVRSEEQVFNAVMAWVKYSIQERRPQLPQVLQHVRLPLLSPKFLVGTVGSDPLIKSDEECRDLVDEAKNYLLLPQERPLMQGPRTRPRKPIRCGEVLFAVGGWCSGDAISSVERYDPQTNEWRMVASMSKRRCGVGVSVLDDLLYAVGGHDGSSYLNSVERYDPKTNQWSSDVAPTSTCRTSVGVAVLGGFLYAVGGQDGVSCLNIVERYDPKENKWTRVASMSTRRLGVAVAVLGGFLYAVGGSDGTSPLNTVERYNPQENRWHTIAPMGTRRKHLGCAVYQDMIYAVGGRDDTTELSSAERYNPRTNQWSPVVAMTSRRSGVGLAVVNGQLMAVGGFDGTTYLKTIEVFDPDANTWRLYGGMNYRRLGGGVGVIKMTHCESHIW

[3] = target: Keap1/Nrf2 (Homo sapiens, UniProt Q14145); assay: Inhibition of Keap1-Nrf2 protein-protein interaction (unknown origin) by fluorescence polarization assay
Sequence of Keap1/Nrf2 (Q16236 whole entry): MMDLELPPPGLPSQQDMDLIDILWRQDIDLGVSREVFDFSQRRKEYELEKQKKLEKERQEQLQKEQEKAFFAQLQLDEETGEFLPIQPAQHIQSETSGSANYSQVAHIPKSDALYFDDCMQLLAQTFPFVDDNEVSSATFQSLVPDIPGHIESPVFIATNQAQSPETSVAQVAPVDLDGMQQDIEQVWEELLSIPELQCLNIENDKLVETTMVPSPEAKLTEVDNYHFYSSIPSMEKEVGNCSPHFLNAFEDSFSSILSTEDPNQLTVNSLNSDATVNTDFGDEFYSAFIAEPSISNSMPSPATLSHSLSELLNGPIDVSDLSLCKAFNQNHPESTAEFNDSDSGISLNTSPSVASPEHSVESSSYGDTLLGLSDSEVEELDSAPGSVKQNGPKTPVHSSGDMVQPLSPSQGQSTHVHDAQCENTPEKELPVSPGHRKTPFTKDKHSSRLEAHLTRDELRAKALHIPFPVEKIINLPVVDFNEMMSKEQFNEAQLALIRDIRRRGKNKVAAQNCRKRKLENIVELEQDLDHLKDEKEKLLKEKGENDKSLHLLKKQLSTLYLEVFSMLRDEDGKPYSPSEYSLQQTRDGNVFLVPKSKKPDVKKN
Sequence of Keap1/Nrf2 (Q14145 whole entry): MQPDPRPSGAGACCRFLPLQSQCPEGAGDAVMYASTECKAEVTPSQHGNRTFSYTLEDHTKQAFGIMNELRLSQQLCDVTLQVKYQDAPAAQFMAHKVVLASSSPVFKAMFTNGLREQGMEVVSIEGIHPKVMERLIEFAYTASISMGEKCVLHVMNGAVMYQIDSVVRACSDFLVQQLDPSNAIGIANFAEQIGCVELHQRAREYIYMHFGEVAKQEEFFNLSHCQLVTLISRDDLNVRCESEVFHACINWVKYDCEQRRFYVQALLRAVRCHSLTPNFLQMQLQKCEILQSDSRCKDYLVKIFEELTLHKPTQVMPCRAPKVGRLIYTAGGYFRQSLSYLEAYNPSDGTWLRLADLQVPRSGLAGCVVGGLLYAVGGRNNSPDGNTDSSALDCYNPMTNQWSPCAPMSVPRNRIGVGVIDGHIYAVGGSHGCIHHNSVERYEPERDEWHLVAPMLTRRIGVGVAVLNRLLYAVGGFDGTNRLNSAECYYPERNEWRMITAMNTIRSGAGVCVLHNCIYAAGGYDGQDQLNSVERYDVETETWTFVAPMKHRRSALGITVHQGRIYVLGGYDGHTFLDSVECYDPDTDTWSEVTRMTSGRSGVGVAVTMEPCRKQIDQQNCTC

[4] = target: T2, Kelch-like protein 3 (Homo sapiens, UniProt Q9UH77); assay: Binding affinity to KLHL3 (unknown origin) assessed as dissociation constant by fluorescence polarization assay
T2 sequence (Q9UH77 whole entry): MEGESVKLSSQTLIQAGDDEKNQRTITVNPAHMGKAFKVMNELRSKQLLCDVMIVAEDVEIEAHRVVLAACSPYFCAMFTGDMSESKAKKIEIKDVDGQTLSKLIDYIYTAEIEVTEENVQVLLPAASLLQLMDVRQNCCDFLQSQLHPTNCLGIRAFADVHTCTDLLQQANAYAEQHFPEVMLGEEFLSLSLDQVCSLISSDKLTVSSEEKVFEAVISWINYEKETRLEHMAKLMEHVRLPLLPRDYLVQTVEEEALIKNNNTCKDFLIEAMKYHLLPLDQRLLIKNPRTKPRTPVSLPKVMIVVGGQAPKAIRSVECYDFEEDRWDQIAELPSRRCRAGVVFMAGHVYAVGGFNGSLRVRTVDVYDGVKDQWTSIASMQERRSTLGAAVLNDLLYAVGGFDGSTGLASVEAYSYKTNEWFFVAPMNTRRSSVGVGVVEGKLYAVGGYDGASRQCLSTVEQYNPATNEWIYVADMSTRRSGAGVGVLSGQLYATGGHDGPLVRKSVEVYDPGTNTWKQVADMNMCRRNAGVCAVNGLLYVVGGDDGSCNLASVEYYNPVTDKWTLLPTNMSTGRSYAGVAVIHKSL

[5] = target: T3, Kelch-like protein 12 (Homo sapiens, UniProt Q53G59); assay: Binding affinity to KLHL12 (unknown origin) extracted from Escherichia coli BL21 Gold (DE3) assessed as dissociation constant by fluorescence polarization assay
T3 sequence (Q53G59 whole entry): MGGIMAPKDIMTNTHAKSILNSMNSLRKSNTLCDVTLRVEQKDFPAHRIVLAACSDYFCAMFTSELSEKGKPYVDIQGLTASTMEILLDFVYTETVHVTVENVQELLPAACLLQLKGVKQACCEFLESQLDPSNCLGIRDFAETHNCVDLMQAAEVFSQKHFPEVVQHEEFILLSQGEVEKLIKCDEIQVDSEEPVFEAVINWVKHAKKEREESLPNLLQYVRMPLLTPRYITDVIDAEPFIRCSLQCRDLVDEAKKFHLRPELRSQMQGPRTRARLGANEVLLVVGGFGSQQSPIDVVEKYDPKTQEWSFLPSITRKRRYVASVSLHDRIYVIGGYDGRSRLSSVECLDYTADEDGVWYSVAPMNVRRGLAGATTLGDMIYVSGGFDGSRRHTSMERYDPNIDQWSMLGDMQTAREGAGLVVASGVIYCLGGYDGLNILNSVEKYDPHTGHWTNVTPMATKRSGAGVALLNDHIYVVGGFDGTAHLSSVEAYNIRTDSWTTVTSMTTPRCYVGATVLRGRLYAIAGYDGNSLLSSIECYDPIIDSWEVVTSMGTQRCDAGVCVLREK

[6] = target: T3, Kelch-like protein 12; assay: Binding affinity to KLHL12 (unknown origin) assessed as inhibition constant

IC50 [1]: 0.02 µM
Compound: CC(C)C[C@H](NC(=O)[C@H](Cc1ccccc1)NC(=O)[C@H](CCC(=O)O)NC(=O)CNC(=O)[C@@H](NC(=O)[C@H](CCC(=O)O)NC(=O)[C@H](CCC(=O)O)NC(=O)[C@H](CC(=O)O)NC(=O)[C@@H](N)CC(C)C)[C@@H](C)O)C(=O)O

Kd [2]: 0.6 µM
Compound: CC(C)C[C@@H]1NC(=O)[C@H](CC(=O)O)NC(=O)[C@@H]2CCCN2C(=O)[C@@H](N)CSCc2cccc(c2)CSC[C@@H](C(N)=O)NC1=O (H-CPDLC-NH2; linker 1-5 via mXylylene)

IC50 [3]: 34.4 µM
Compound: Ac-DPSTGEL-OH

Kd [4]: 0.69 µM
Compound: H-EPEEPEADQHQ-OH

Kd [5]: 15 µM
Ki [6]: 21 µM
Compound: H-PGAPPGRDLASVP-OH
